Where two headings read alike, the source gives them in different places.
Tests used:
HSV-2 (strain 333) [1] = experiment: Antiviral activity, HSV-2 plaque reduction (Example 8 Part A); format: cell-based
Procedure: The effects of 1-(2-Deoxy-β-D-ribofuranosyl)-5-iodo-2-pyrimidinone (IPdR) of Example 3 were compared with 1-(2-Deoxy-β-D-ribofuranosyl)-5-fluoro-2-pyrimidinone (FPdR) on HSV-2 (strain 333) in […]. Twenty four well plates (sterile) were plated with 10^6 Vero cells/well the day before infecting. 250 PFU of HSV-2 were used in each well. The test compounds, IPdR and FPdR, were added at zero times of post infection and the cultures incubated at 37° C. for 48 hours. At the end of the incubation period the media was removed from Vero cells. Plates were strained with 0.8% crystal violet in 50% ethanol for 15 minutes. The plaque was counted.

[2] = Cytotoxicity / cell proliferation in KB cells (Example 8 Part B); format: cell-based, human; details: human, kb cells, 72 hour exposure
Procedure: (§1) To compare the toxicity of FPdR and IPdR human nasopharyngeal carcinoma KB cells obtained from the American Type Culture Collection were maintained as a monolayer in RPMI 1640 supplemented with 5% fetal bovine serum, 10 mM HEPES buffer (pH 7.4) and karamycin (100 μg/ml). Cells were maintained at 37° C. in a humidified atmosphere of 5% CO2 in air. Cell numbers were determined with an electronic particle counter (Particle Data, Inc., Elmhurst, Ill.).
(§2) For determination of drug effect on cell proliferation, cells were harvested from rapidly proliferting cultures by treatment with pancreation. Cell number was determined and plated in 24 well (6 mm well diameter) plates at a concentratin of 5×10^3 cells/ml. Drug exposures were initiated by a complete change of medium after overnight incubation. Following a 72 hour drug exposure […]. of thiazolyl blue was added and incubated for a further 4 hour period. The media from the plates was aspirated completely and […] DMSO was added to each well. The plates were placed on a shaker for 5 minutes and the blue solution transferred to 96 well plates and read at 540 nm with a scanning multiwell spectrophotometer (Biotek Instruments, Inc. Burlington, Vt.).

[3] = tested on: human nasopharyngeal carcinoma KB cells; experiment: as above; format: cell-based
Procedure: as §1, §2

host cell = details: literature, Oftebro et al., Oyen et al.; cited from earlier work
virus = details: literature; cited from earlier work
HSV-1 (KOS) = experiment: Antiherpes activity, HSV-1 (KOS) (Example 10); format: cell-based
Procedure: (§3) IPdR and 5-bromo-2-pyrimidinone-2-deoxyribonucleoside (BrPdR) were tested for antiherpes activity according to procedures described by Cheng, Y.-C., et al. Antimicrob. Agents Chemother (1976) 10, 119.

HSV-1 (CLl0l) = experiment: Antiherpes activity, HSV-1 (CLl0l) (Example 10); format: cell-based
Procedure: as §3

HSV-2 (333) = experiment: Antiherpes activity, HSV-2 (333) (Example 10); format: cell-based
Procedure: as §3

[4] = tested on: ACG (S1), acyclovir resistant strain of HSV1; experiment: Antiherpes activity, acyclovir resistant strain of HSV1 (S1) (Example 10); format: cell-based, HSV-1; details: Human alphaherpesvirus 1, read-out: plaque-forming units as % of control
Procedure: as §3

[5] = tested on: ACG (Tr7), acyclovir resistant strain of HSV1; experiment: Antiherpes activity, acyclovir resistant strain of HSV1 (Tr7) (Example 10); format: cell-based, HSV-1; details: Human alphaherpesvirus 1, read-out: plaque-forming units as % of control
Procedure: as §3

[6] = tested on: BVdU resistant strain of HSV-1; experiment: Antiherpes activity, BVdU resistant strain (Example 10); format: cell-based; details: Human alphaherpesvirus 1, read-out: plaque-forming units as % of control
Procedure: as §3

HSV-2 (CEU-G) = experiment: Antiherpes activity, HSV-2 (CEU-G) (Example 10); format: cell-based; details: Human alphaherpesvirus 2, read-out: plaque-forming units as % of control
Procedure: as §3

[7] = tested on: HSV-1 and HSV-2 strains (herpes virus group); experiment: Antiherpes activity, overall statement; format: cell-based
Procedure: as §3

PFA-resistant strains = experiment: Antiherpes activity, PFA-resistant strain (Example 10); format: cell-based; details: 5 μM; read-out: plaque-forming units as % of control
Procedure: as §3

HSV-1 = experiment: Viral inhibition, HSV-1 (Example 7, method of Example 5); format: cell-based, herpes simplex type 1; details: Human alphaherpesvirus 1
Procedure: (§4) In accordance with the present invention, 1-(2-Deoxy-β-D-ribofuranosyl)-5-(methylmercapto)-2-pyrimidinone is prepared essentially in accordance with the procedure set forth in "Snythesis and Antiviral Activity of 1-(2-Deoxy-β-D-ribofuranosyl)-5-(methylmercapto)-2-pyrimidinone" by Schroeder and Bardos and Cheng, Volume 24, page 109, January 1981. HeLa cells were infected in 1640 RPMI medium with herpes simplex type 1 (HSV-1) and independently with herpes simplex type 2 (HSV-2) virus at a multiplicity of 5 to 10 plaque forming units per cell. The composition of 1640 RPMI medium is reported in "Biological Activity of 5 Ethyl, 5 Propyl, and 5 Vinyl 2'-Deoxyuridine" by Cheng et al published in Antimicrobial Agents and Chemotherapy, Volume 10, beginning at page 119 (1976). 1640 RPMI medium is commercially available from Gibco Company, Grand Island, N.Y. After 1 hour, virus absorption, the drugs were added. Resulting cultures were analyzed for virus titer at 24 hours post infection a described in the procedure set forth in "Biological Activity of 5-Ethyl, 5-Propyl and 5-Vinyl 2'-uridine" by Cheng et al. The results are set forth in Table 2. The numbers set forth in Table 2 show the number of plaque forming units in the control which contained no methylmercapto compound and the number of units at concentrations of 100, 200 and 400 micromoles of the methylmercapto compound. The results clearly indicate substantial decrease in the number of plaque forming units in the presence of 1-(2-Deoxy-β-D-ribofuranosyl)-5-(methylmercapto)-2-pyrimidinone.
(§5) The above described methyl compound was tested for viral inhibition substantially in accordance with the method of Example 5 except that the concentrations were 50 and 100 micromolar.

HSV-2 = experiment: Viral inhibition, HSV-2 (Example 7, method of Example 5); format: cell-based, herpes simplex type 2; details: Human alphaherpesvirus 2
Procedure: as §4, §5

HSV-2 (Strain 333) [8] = experiment: Antiviral activity in HSV-2 infected mice by various routes (Example 9); format: in vivo, Swiss-Webster female mice; details: for % ILS: excluding 45 day survivors
Procedure: The drugs were administered once a day for five days or twice daily (12 hour intervals) for 2.5 days beginning 24 hours postinfection. Mean body weight determinations of drug treated and control animals were made during the treatment period as an indicator of sublethal toxicity. Deaths were recorded through day 45.

murine leukemia L 1210 = details: cited from earlier work
[9] = intravenous injection; cited from earlier work
nucleotidases = details: systemic administration; cited from earlier work
bone marrow = details: cited from earlier work
[10] = tested on: herpatic lesions of the skin; details: topical; cited from earlier work
[11] = Human alphaherpesvirus 1, read-out: plaque-forming units as % of control
[12] = Human alphaherpesvirus 1, 5 μM, read-out: plaque-forming units as % of control
[13] = 50 micromolar, vs untreated control
[14] = 40 mg/kg oral, 2 × 21/2, 72 hours after implant
[15] = 40 mg/kg oral, 2 × 21/2, innoculation dose 1 × 10^6 PFU

SMILES: O=c1ncc(F)cn1[C@H]1C[C@H](O)[C@@H](CO)O1 [FPdR, 1-(2-Deoxy-β-D-ribofuranosyl)-5-fluoro-2-pyrimidinone]
- antiviral activity, comparison of IPdR and FPdR (HSV-2 (strain 333) [1]): comparable in antiviral activity
- inhibition at 100 µM (HSV-2 (strain 333) [1]; Human alphaherpesvirus 2, Vero, 100 μM, 48 hours): 50.5%
- activity at 72 h, 1 µM ([2]; 1.0 μm, read-out: % Growth): 102%
- activity at 72 h, 10 µM ([2]; 10 μm, read-out: % Growth): 84%
- activity at 72 h, 25 µM ([2]; 25 μm, read-out: % Growth): 49%
- activity at 72 h, 50 µM ([2]; 50 μm, read-out: % Growth): 21%
- IC50 at 72 h ([2]; cytotoxicity, read-out: ID50): 25 µM
- toxicity against the host cells [3]: significantly greater than IPdR
- toxicity against the host cells ([3]; listed as 5-fluoro deoxyriboside): more toxic to the host than to the virus
- toxicity to the host cell versus virus (host cell): more toxic to the host cell than to the virus
- anti-viral activity (virus): exhibiting anti-viral activity

SMILES: O=c1[nH]c(=O)n([C@H]2C[C@H](O)[C@@H](CO)O2)cc1/C=C/Br [BVdU, (bromovinyl) deoxyuridine, reference compound]
- activity at 30 µM (HSV-1 (KOS); [11]): 0.1%
- activity at 30 µM (HSV-1 (CLl0l); [11]): 0.4%
- activity at 30 µM (HSV-2 (333); Human alphaherpesvirus 2, read-out: plaque-forming units as % of control): 1.7%
- activity at 30 µM [4]: 3.7%
- activity at 30 µM [5]: 0.8%
- activity at 30 µM [6]: 52%

SMILES: O=c1ncc(Br)cn1[C@H]1C[C@H](O)[C@@H](CO)O1 [BrPdR, 1-(2-Deoxy-β-D-ribofuranosyl)-5-(bromo)-2-pyrimidinone]
- activity at 100 µM (HSV-1 (KOS); Human alphaherpesvirus 1, 100 μM, read-out: plaque-forming units as % of control): 0.6%
- activity at 100 µM (HSV-2 (333); Human alphaherpesvirus 2, 100 μM, read-out: plaque-forming units as % of control): 4.5%
- activity at 100 µM (HSV-2 (CEU-G)): 7.1%
- antiherpes / anti-viral activity (words) [7]: significant antiherpes activities

SMILES: Nc1nc2c(ncn2COCCO)c(=O)[nH]1 [ACG, acyclovir, reference compound]
- activity at 5 µM (HSV-1 (KOS); [12]): 6.5%
- activity at 5 µM (HSV-1 (CLl0l); [12]): 4%
- activity at 5 µM [4]: 100%
- activity at 5 µM [5]: 85%
- activity at 5 µM [6]: 0.7%
- activity at 5 µM (PFA-resistant strains): 100%

SMILES: Cc1cnc(=O)n(C2C[C@H](O)[C@@H](CO)O2)c1 (stereo in doubt) [methyl compound, 1-(2-Deoxy-α-D-ribofuranosyl)-5-(methyl)-2-pyrimidinone]
- inhibition at 50 µM (HSV-1; [13]): 95.5%
- inhibition at 100 µM (HSV-1; 100 micromolar): 99%
- inhibition at 50 µM (HSV-2; [13]): 87.9%
- inhibition at 100 µM (HSV-2; 100 micromolar): 98.3%

SMILES: Nc1nc2c(ncn2COC(CO)CO)c(=O)[nH]1 [DHPG, Dihydroxy propoxymethyl guanine, reference compound]
- Survivors/Total (HSV-2 (Strain 333) [8]; 40 mg/kg oral, 2 × 21/2): 20/20
- percent survival (HSV-2 (Strain 333) [8]; 40 mg/kg oral, 2 × 21/2): 100%
- Survivors/Total (HSV-2 (Strain 333) [8]; [14]): 5/5
- percent survival (HSV-2 (Strain 333) [8]; [14]): 100%
- Mean Survival Time (HSV-2 (Strain 333) [8]; 40 mg/kg oral, 2 × 21/2, control 9.8 ± 1.3): > 45 days
- Mean Survival Time (HSV-2 (Strain 333) [8]; 40 mg/kg oral, 2 × 21/2, control 10.6 ± 2.1): > 45 days
- Survivors/Total (HSV-2 (Strain 333) [8]; [15]): 2/5
- percent survival (HSV-2 (Strain 333) [8]; [15]): 40%
- Mean Survival Time (days), of the mice that died (HSV-2 (Strain 333) [8]; 40 mg/kg oral, 2 × 21/2, innoculation dose 1 × 10^6 PFU, control 10.0 ± 1.2): 20.0 ± 7.0 days
- % ILS (HSV-2 (Strain 333) [8]; [15]): 200%

SMILES: O=c1ncc(Br)cn1[C@@H]1O[C@H](CO)[C@@H](O)[C@H]1O [5-bromo]
- anti-tumor activity (murine leukemia L 1210): lack of anti-tumor activity

SMILES: O=c1ncc(Cl)cn1[C@@H]1O[C@H](CO)[C@@H](O)[C@H]1O [5-chloro]
- anti-tumor activity (murine leukemia L 1210): lack of anti-tumor activity

SMILES: O=c1ncc(F)cn1[C@@H]1O[C@H](CO)[C@@H](O)[C@H]1O [5-fluoro riboside, 5-fluoro-pyrimidin-2-one riboside]
- anti-viral activity (virus): possessing anti-viral activity
- anti-tumor activity (murine leukemia L 1210): only the 5-fluoro was active

SMILES: C#Cc1cnc(=O)n([C@H]2C[C@H](O)[C@@H](CO)O2)c1 [EPdR]
- Survivors/Total (HSV-2 (Strain 333) [8]; 100 mg/kg IP, 1 × 5): 1/5
- percent survival (HSV-2 (Strain 333) [8]; 100 mg/kg IP, 1 × 5): 20%
- Mean Survival Time (days), of the mice that died (HSV-2 (Strain 333) [8]; 100 mg/kg IP, 1 × 5, control 9.6 ± 1.1): 9.0 ± 0.8 days
- % ILS (HSV-2 (Strain 333) [8]; 100 mg/kg IP, 1 × 5): 94%

SMILES: O=c1[nH]c(=O)n([C@H]2C[C@H](O)[C@@H](CO)O2)cc1I [idoxuridine, 5-iodo-2'-deoxyuridine]
- disappearance of most of the active form from the blood [9]: about thirty
- inactivation by nucleotidases (nucleotidases): rapidly inactivated by nucleotidases
- toxicities upon systemic administration (bone marrow): bone marrow depression
- response of herpatic lesions of the skin [10]: do not respond

From US4895937A, “5-ioso-2-pyrimidinone nucleoside” (The Research Foundation of State University of New York, priority 1988, dated 1990)
